This passage reports GI50 and TGI results from PubChem BioAssay (NCI).

Some test systems named below: MOLT-4 leukemia; BT-549 breast; HOP-92 NSCLC; SN12C renal; EKVX NSCLC; SK-MEL-2 melanoma; SF-268 CNS; HT29 colon.
Holding throughout (assay): DTP human tumour cell line panel, 48 h

Where “and” joins values, the source holds several entries; their conditions need not be identical. Equal values may be shown once.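 Values below derive from 48-hour exposures of cells grown in 96-well plates, with endpoints linearly interpolated between the two concentrations bracketing the appropriate inhibition level. GI50 is the concentration that inhibits growth by half. The concentration for full growth arrest is given as TGI.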

A word on the GI50: it is the concentration that inhibits growth by half. As a reminder, the TGI is the concentration giving total growth inhibition. For the compound `O=C(Nc1nc2ccc(C(F)(F)F)cc2s1)c1cc(Cl)ccc1O`, the GI50 was 684 nM in the experiment with MOLT-4 leukemia; 890 nM in the experiment with BT-549 breast; 116 nM with HOP-92 NSCLC; 353 nM in the experiment with SN12C renal; 370 nM in the experiment with EKVX NSCLC; 0.798 µM with SK-MEL-2 melanoma. Also, the GI50 was 497 nM in the experiment with SF-268 CNS and 2100 nM in the experiment with HT29 colon. For the same compound, the TGI was 13.4 µM with MOLT-4 leukemia; 7.77 µM in the experiment with BT-549 breast; 0.489 µM in the experiment with HOP-92 NSCLC; over 100 µM in the experiment on SN12C renal; 39 µM with EKVX NSCLC; 6.09 µM in the experiment with SK-MEL-2 melanoma. For the same compound, the total growth inhibition concentration (TGI) in the experiment with SF-268 CNS is over 100 µM; with HT29 colon, 74.7 µM.
As to `O=C1/C(=C/c2ccc(Br)cc2)COc2ccc(O)c(O)c21`, the GI50 with MOLT-4 leukemia is 431 nM; in the experiment on BT-549 breast it was 1200 nM; with HOP-92 NSCLC it was 1260 nM; in the experiment with SN12C renal, 617 nM; in the experiment with EKVX NSCLC, 1450 nM; in the experiment on SK-MEL-2 melanoma, 1.69 µM. Also, the GI50 was 1260 nM in the experiment with SF-268 CNS and 2300 nM with HT29 colon. The TGI with MOLT-4 leukemia was over 100 µM; in the experiment on BT-549 breast it was 3 µM; with HOP-92 NSCLC it was 5.49 µM; in the experiment with SN12C renal it was 2.32 µM; with EKVX NSCLC, 3.14 µM; in the experiment on SK-MEL-2 melanoma, 4.53 µM. The TGI in the experiment on SF-268 CNS came out at 3.4 µM; in the experiment on HT29 colon, 5.79 µM.
For `CC(C)CCN1c2nc(Nc3cc(F)c(O)c(F)c3)ncc2N(C)C(=O)C1C` (configuration not stated), the GI50 is 4100 nM with MOLT-4 leukemia; 5660 nM in the experiment on BT-549 breast; 591 nM in the experiment on HOP-92 NSCLC; 4900 nM in the experiment on SN12C renal; 9260 nM in the experiment on EKVX NSCLC; 3.14 µM in the experiment on SK-MEL-2 melanoma. The GI50 was 5810 nM with SF-268 CNS and 5830 nM with HT29 colon. The TGI is 19.9 µM in the experiment with MOLT-4 leukemia; over 67.7 µM with BT-549 breast; 14.9 µM with HOP-92 NSCLC; over 91.6 µM in the experiment with SN12C renal; over 100 µM in the experiment on EKVX NSCLC; 15.2 µM with SK-MEL-2 melanoma. Besides, the TGI in the experiment on SF-268 CNS came out at 56.8 µM; with HT29 colon, 46.7 µM.
As to `CS(=O)(=O)Nc1ccc2c(c1)oc(=O)c1ccccc12`, the TGI in the experiment with MOLT-4 leukemia, with BT-549 breast, in the experiment with HOP-92 NSCLC, in the experiment on SN12C renal, in the experiment with EKVX NSCLC and in the experiment with SK-MEL-2 melanoma was over 100 µM each time. Moreover, the TGI in the experiment on SF-268 CNS and in the experiment on HT29 colon was over 100 µM each time.
Regarding `Cn1nc(N)c2cc([C@@H]3Nc4ccc5[nH]ncc5c4[C@H]4C5CCC(C5)[C@@H]34)ccc21` (some centres not stated), the GI50 is 556 nM in the experiment on MOLT-4 leukemia; 1010 nM in the experiment with BT-549 breast; 1510 nM with HOP-92 NSCLC; 612 nM with SN12C renal; 732 nM with EKVX NSCLC; 11.1 µM with SK-MEL-2 melanoma. In addition, the figures for the GI50 with SF-268 CNS and in the experiment on HT29 colon were 1320 nM and 387 nM, respectively. Further, the TGI with MOLT-4 leukemia was over 51 µM; in the experiment on BT-549 breast, 12.3 µM; with HOP-92 NSCLC, 17.9 µM; in the experiment on SN12C renal it was 21.2 µM; in the experiment with EKVX NSCLC, 67 µM; in the experiment on SK-MEL-2 melanoma it was 39.4 µM. Besides, the TGI with SF-268 CNS is 41 µM; in the experiment with HT29 colon, over 38.1 µM.
Turning to `CCC(C)n1ncn(-c2ccc(N3CCN(c4ccc(OCC5COC(Cn6cncn6)(c6ccc(Cl)cc6Cl)O5)cc4)CC3)cc2)c1=O` (configuration not stated), the GI50 is over 100000 nM in the experiment on MOLT-4 leukemia; 3600 nM in the experiment on BT-549 breast; 335 nM with HOP-92 NSCLC; over 100000 nM in the experiment with SN12C renal; 1240 nM with EKVX NSCLC; 13.8 µM in the experiment on SK-MEL-2 melanoma. The values for the GI50 with SF-268 CNS and in the experiment with HT29 colon were 33600 nM and 867 nM, respectively. Moreover, the TGI in the experiment with MOLT-4 leukemia was over 100 µM; in the experiment on BT-549 breast, over 100 µM; with HOP-92 NSCLC it was 24.5 µM; in the experiment with SN12C renal, over 100 µM; in the experiment on EKVX NSCLC, over 100 µM; with SK-MEL-2 melanoma, 68.9 µM. Moreover, the TGI with SF-268 CNS and with HT29 colon was over 100 µM each time.
Take `O/N=C/C1C(OCc2ccccc2)C(OCc2ccccc2)C(OCc2ccccc2)CN1Cc1ccccc1` (configuration not stated): the TGI in the experiment with MOLT-4 leukemia is 31.4 µM; in the experiment on BT-549 breast it was 37.1 µM; in the experiment on HOP-92 NSCLC, 33.1 µM and 9.16 µM; in the experiment on SN12C renal it was 62 µM and > 100 µM; with EKVX NSCLC, over 100 µM; with SK-MEL-2 melanoma, 53.9 µM. In addition, the TGI in the experiment on SF-268 CNS is over 100 µM; in the experiment on HT29 colon, 78.7 µM and > 100 µM. Besides, the GI50 with HOP-92 NSCLC was 13600 nM and 1990 nM; in the experiment on SN12C renal, 20600 nM and 4320 nM; in the experiment with HT29 colon, 10700 nM and 3590 nM.
On to `CC(C)=CCNc1ncnc2c1ncn2C1OC(CO)C(O)C1O` (configuration not stated), for which the GI50 was 457 nM in the experiment with MOLT-4 leukemia; 570 nM with BT-549 breast; 1140 nM in the experiment on HOP-92 NSCLC; 1360 nM in the experiment with SN12C renal; 7790 nM in the experiment with EKVX NSCLC; 16.2 µM in the experiment on SK-MEL-2 melanoma. Further, the GI50 in the experiment on SF-268 CNS was 2000 nM; in the experiment with HT29 colon it was 1340 nM. The TGI in the experiment with MOLT-4 leukemia is 3.82 µM; in the experiment on BT-549 breast it was 2.8 µM; with HOP-92 NSCLC it was 3.99 µM; in the experiment on SN12C renal it was over 408 µM; in the experiment with EKVX NSCLC, over 1000 µM; in the experiment on SK-MEL-2 melanoma, 334 µM. Moreover, the TGI with SF-268 CNS was over 432 µM; with HT29 colon, over 1000 µM.
On to `COc1cc(N(CCC#N)CCC#N)ccc1/C(N=Nc1ccc([N+](=O)[O-])cc1)=N/NC(=O)c1cc(Br)ccc1O`, for which the GI50 was 42.6 µg/mL in the experiment with MOLT-4 leukemia; 53 µg/mL with BT-549 breast; 79.6 µg/mL with HOP-92 NSCLC; 53.4 µg/mL in the experiment on SN12C renal; 42.8 µg/mL in the experiment on EKVX NSCLC; 44.2 µg/mL with SK-MEL-2 melanoma. Further, the GI50 in the experiment on SF-268 CNS is 19.3 µg/mL; in the experiment with HT29 colon it was 43.5 µg/mL. In addition, the TGI was 128 µg/mL with MOLT-4 leukemia; over 150 µg/mL with BT-549 breast; over 150 µg/mL in the experiment on HOP-92 NSCLC; over 150 µg/mL in the experiment with SN12C renal; over 150 µg/mL in the experiment on EKVX NSCLC; over 150 µg/mL in the experiment on SK-MEL-2 melanoma. The TGI with SF-268 CNS is 78.7 µg/mL; with HT29 colon it was 105 µg/mL.
Take `COc1ccc(/C=C(/C(=O)N2CCN(c3ccccc3)CC2)c2cc(OC)c(OC)c(OC)c2)cc1O`: the GI50 with MOLT-4 leukemia was 368 nM; with BT-549 breast, 391 nM; in the experiment on HOP-92 NSCLC, 22000 nM; in the experiment with SN12C renal it was 564 nM; with EKVX NSCLC, 631 nM; in the experiment with SK-MEL-2 melanoma, 0.387 µM. Moreover, the GI50 was 543 nM in the experiment on SF-268 CNS and 5000 nM with HT29 colon. The TGI with MOLT-4 leukemia was over 100 µM; with BT-549 breast, 98.5 µM; in the experiment with HOP-92 NSCLC, over 100 µM; in the experiment with SN12C renal it was over 100 µM; with EKVX NSCLC, over 100 µM; with SK-MEL-2 melanoma, 86.5 µM. In addition, the results for the TGI in the experiment with SF-268 CNS and in the experiment with HT29 colon were over 100 µM and 38.5 µM, respectively.
